Measurements published in PMC8025548 (Carbohydrate Polymers, 2021).
≈ marks a conversion by molar mass, not a printed value. Read-outs that look alike come from different tables or passages of the source.

Key:
[1] = SBECD-assisted equilibrium solubilization of REM, assayed by HPLC; assay type: physicochemical; conditions: for solubility at 24 h: pH 1.9
[2] = ref Larson, 2019, cited from earlier work

solubility at 24 h ([1]; 20 % (w/w) aqueous SBECD solution): 7600 to 9700 µg/mL (≈ 12.6 to 16.1 mM)
solubility at 24 h ([1]; 20 % aqueous SBECD solution): 8400 µg/mL (≈ 13.9 mM)
improvement of the aqueous solubility of REM ([1]; with solubilizing carbohydrate (SBECD)): 300 fold
SMILES: CCC(CC)COC(=O)[C@H](C)N[P@](=O)(OC[C@H]1O[C@@](C#N)(c2ccc3c(N)ncnn23)[C@H](O)[C@@H]1O)Oc1ccccc1 [REM, Remdesivir]
dissolved REM ([2]; 20 % (w/w) aqueous solution of PEG-400): 3.3 mg/mL
dissolved REM ([2]; 20 % (w/w) aqueous solution of SBECD): 8.5 mg/mL
dissolved REM ([2]; 20 % (w/w) aqueous solution of Tween-80): 3.9 mg/mL
